Measurements reported in patent publication US8685999B2, “Beta carboline sulphonylurea derivatives as EP4 receptor antagonists” (Merck Sharp & Dohme Corp., priority 2008, dated 2014).

What follows are compounds tested against T1, EP4 (Homo sapiens, UniProt P35408) (assay: Prostanoid receptor binding assay (radioligand displacement binding assay)). Details: column marked X when IC50 < 1; read-out: IC50 (nm) X < 1.
T1 construct: expressed in transfected cells; membranes prepared by differential centrifugation
Method: Prostanoid receptor cDNAs corresponding to full length coding sequences are subcloned into the appropriate sites of mammalian expression vectors and transfected into HEK 293(ebna) cells. HEK 293(ebna) cells expressing the individual cDNAs are grown under selection and individual colonies are isolated after 2-3 weeks of growth using the cloning ring method and subsequently expanded into clonal cell lines.
Transfected HEK 293(ebna) cells are maintained in culture, harvested and membranes are prepared by differential centrifugation, following lysis of the cells in the presence of protease inhibitors, for use in receptor binding assays. Prostanoid receptor binding assays (for DP1, DP2 (CRTH2), EP1, EP2, EP3-III, EP4, FP, IP, and TP) are performed in 10 mM MES/KOH (pH 6.0) (EPs, FP and TP) or 10 mM HEPES/KOH (pH 7.4) (DPs and IP), containing 1 mM EDTA, 2.5-30 mM divalent cation and the appropriate radio-ligand. Synthetic compounds are added in DMSO which is kept constant at 1% (v/v) in all incubations. The reaction is initiated by addition of membrane protein. Non-specific binding is determined in the presence of 10 μM of the corresponding non-radioactive prostanoid. Incubations are conducted for 60-120 min at room temperature or 30° C. and terminated by rapid filtration. Specific binding is calculated by subtracting non specific binding from total binding. The residual specific binding at each ligand concentration is calculated and expressed as a function of ligand concentration in order to construct sigmoidal concentration-response curves. The binding affinity of the compounds is determined by calculating the equilibrium inhibition constant (Ki) from the equation Ki=InPt/1+[radio-ligand]/Kd where Kd is the equilibrium dissociation constant for the radio-ligand:receptor interaction and InPt is the inflection point of the dose-response curves.
Abramovitz, M. et al., Biochem, Biophys. Acta, 2000, 1483, pp. 285.

T1 sequence (P35408 whole entry): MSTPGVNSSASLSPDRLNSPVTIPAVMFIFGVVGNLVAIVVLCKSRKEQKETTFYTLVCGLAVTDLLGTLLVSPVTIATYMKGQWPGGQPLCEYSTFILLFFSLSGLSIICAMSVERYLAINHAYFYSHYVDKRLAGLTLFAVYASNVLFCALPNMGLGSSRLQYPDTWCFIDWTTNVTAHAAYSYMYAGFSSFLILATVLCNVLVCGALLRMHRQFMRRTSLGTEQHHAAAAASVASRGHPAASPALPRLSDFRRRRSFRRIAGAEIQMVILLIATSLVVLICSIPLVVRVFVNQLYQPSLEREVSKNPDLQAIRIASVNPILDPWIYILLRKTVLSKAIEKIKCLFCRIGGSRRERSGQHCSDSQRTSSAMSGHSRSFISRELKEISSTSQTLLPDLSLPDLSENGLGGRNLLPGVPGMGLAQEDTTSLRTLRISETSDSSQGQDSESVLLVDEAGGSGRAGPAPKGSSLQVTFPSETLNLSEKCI

| Structure (SMILES) | IC50 |
| --- | --- |
| CN1CCc2c(n(-c3ccc(CCNC(=O)NS(=O)(=O)c4ccc(Cl)cc4)cc3)c3ccc(-c4cccnc4)cc23)C1=O [Example 1-21, 4-chloro-N-[({2-[4-(2-methyl-1-oxo-6-pyridin-3-yl-1,2,3,4-tetrahydro-9H-beta-carbolin-9-yl)phenyl]ethyl}amino)carbonyl]benzenesulfonamide] | < 1 nM |
| CN1CCc2c(n(-c3ccc(CCNC(=O)NS(=O)(=O)c4ccc(Cl)cc4)cc3)c3ccc(-c4ccccn4)cc23)C1=O [Example 1-22, 4-chloro-N-[({2-[4-(2-methyl-1-oxo-6-pyridin-2-yl-1,2,3,4-tetrahydro-9H-beta-carbolin-9-yl)phenyl]ethyl}amino)carbonyl]benzenesulfonamide] | < 1 nM |
| CN1CCc2c(n(-c3ccc(CC4(NC(=O)NS(=O)(=O)c5ccc(Cl)cc5)CC4)cc3)c3ccc(-c4ccccc4F)cc23)C1=O [Example 1-23, 4-chloro-N-{[(1-{4-[6-(2-fluorophenyl)-2-methyl-1-oxo-1,2,3,4-tetrahydro-9H-beta-carbolin-9-yl]benzyl}cyclopropyl)amino]carbonyl}benzenesulfonamide] | < 1 nM |
| CN1CCc2c(n(-c3ccc(CC4(NC(=O)NS(=O)(=O)c5ccc(Cl)cc5)CC4)cc3)c3ccc(-c4cccnc4)cc23)C1=O [Example 1-24, 4-chloro-N-[({1-[4-(2-methyl-1-oxo-6-pyridin-3-yl-1,2,3,4-tetrahydro-9H-beta-carbolin-9-yl)benzyl]cyclopropyl}amino)carbonyl]benzenesulfonamide] | < 1 nM |
| CN1CCc2c(n(-c3ccc(CC4(NC(=O)NS(=O)(=O)c5ccc(Cl)cc5)CC4)cc3)c3ccc(-c4ccsc4)cc23)C1=O [Example 1-25, 4-chloro-N-{[(1-{4-[2-methyl-1-oxo-6-(3-thienyl)-1,2,3,4-tetrahydro-9H-beta-carbolin-9-yl]benzyl}cyclopropyl)amino]carbonyl}benzenesulfonamide] | < 1 nM |
| CN1CCc2c(n(-c3ccc(CC4(NC(=O)NS(=O)(=O)c5ccc(Cl)cc5)CC4)cc3)c3ccc(-c4ccccn4)cc23)C1=O [Example 1-26, 4-chloro-N-[({1-[4-(2-methyl-1-oxo-6-pyridin-2-yl-1,2,3,4-tetrahydro-9H-beta-carbolin-9-yl)benzyl]cyclopropyl}amino)carbonyl]benzenesulfonamide] | < 1 nM |
| Cc1ccccc1-c1ccc2c(c1)c1c(n2-c2ccc(CC3(NC(=O)NS(=O)(=O)c4ccc(Cl)cc4)CC3)cc2)C(=O)N(C)CC1 [Example 1-27, 4-chloro-N-{[(1-{4-[2-methyl-6-(2-methylphenyl)-1-oxo-1,2,3,4-tetrahydro-9H-beta-carbolin-9-yl]benzyl}cyclopropyl)amino]carbonyl}benzenesulfonamide] | < 1 nM |
| Cc1cc(C)c2c3c(n(-c4ccc(CC5(NC(=O)NS(=O)(=O)c6ccc(Cl)cc6)CC5)cc4)c2c1)C(=O)N(C)CC3 [Example 1-28, 4-chloro-N-[({1-[4-(2,5,7-trimethyl-1-oxo-1,2,3,4-tetrahydro-9H-beta-carbolin-9-yl)benzyl]cyclopropyl}amino)carbonyl]benzenesulfonamide] | < 1 nM |
| CN1CCc2c(n(-c3ccc(CC4(NC(=O)NS(=O)(=O)c5c(Cl)cccc5Cl)CC4)cc3)c3ccc(-c4ccccc4)cc23)C1=O [Example 1-29, 2,6-dichloro-N-[({1-[4-(2-methyl-1-oxo-6-phenyl-1,2,3,4-tetrahydro-9H-beta-carbolin-9-yl)benzyl]cyclopropyl}amino)carbonyl]benzenesulfonamide] | < 1 nM |
| COc1cccc(OC)c1S(=O)(=O)NC(=O)NC1(Cc2ccc(-n3c4c(c5cc(-c6ccccc6)ccc53)CCN(C)C4=O)cc2)CC1 [Example 1-30, 2,6-dimethoxy-N-[({1-[4-(2-methyl-1-oxo-6-phenyl-1,2,3,4-tetrahydro-9H-beta-carbolin-9-yl)benzyl]cyclopropyl}amino)carbonyl]benzenesulfonamide] | < 1 nM |
